Measurements taken from US4395391A, “Unsymmetrically substituted dicarboxylic-acid-bis-(2,4,6-triiodo-anilides), their preparation, and x-ray contrast media containing same” (priority 1980, dated 1983).

How the values were obtained:
[1] = distribution coefficient butanol/water, pH 7.4; format: physicochemical; conditions: meglumine salts
Text: By providing the compounds of this invention wherein only one of the two 5,5',-position hydrogen atoms is substituted, new contrast-producing substances are obtained. […] This can be shown by comparing the values of protein binding, compatibility, biliary and renal excretion of the meglumine salts of the conventional agent iodipamide (B) and an agent of this invention, hexane-diacid-1-(3-carboxy-2,4,6-triiodo-anilide)-6-(3-carboxy-5-N-methyl- carbamoyl-2,4,6-triido-anilide) (A).

rat [2] = experiment: ED50 rat, intracisternal; format: in vivo; conditions: 200-250 g rat, diluted with 3% mannite solution
Method: (§1) least 4 doses were tested on 10 animals. The effectiveness criteria used
(§2) are the states of excitation, grave behavioral anomalies, coma and death
(§3) over the period of 24 h.
(3) With the test equipment essentially the same ss in (2), 200-250 g rat
are injected with contrast media in the cisterna suboccipitalis. The
contrast media were diluted with a 3% mannite solution to adjust the […]

rat [3] = experiment: ED50 rat, pericerebrally (excitation, grave behavioral anomalies, coma and death over 24 h); format: in vivo; conditions: pericerebral (intracerebral) injection, 0.4 ml, rats about 100 g
Method: (2) Male and female rats of about 100 g in weight were injected
intracerebrally between the cheekbone and the occiputal bone through a
natural bone hole of the cranium while being slightly anesthesized with
ether. 0.4 ml injections of contrast media solutions of various
concentrations were used according to the method of Valzelli. The
injection was carried out with a Hamilton syringe 710 N for which the
penetration depth is limited to 10 mm. Depending on the preparation, at
as §1, §2, §3

rat [4] = experiment: LD50, i.v., rat; format: in vivo; conditions: meglumine salt solutions 180 mg iodine per ml, 0.8 ml/minute
Method: (1) The contrast media were injected in the form of meglumine salt
solutions of 180 mg of iodine per ml at a rate of 0.8 ml/minute into male

dog liver = experiment: computer tomography: maximum enrichment of contrast medium in dog liver; format: in vivo, dog (beagle); conditions: 360 mg I/kg, intravenous, meglumine salt solutions 180 mg of I/ml, beagles
Text: The extraordinarily pronounced enrichment of the compounds of this invention is shown in Table 2 listing the maximal enrichment in the liver following intravenous administration of the meglumine salt solutions of the prior art iosefamic acid (D) and of a compound of this invention, 3-oxapentane-diacid-1-([…]-2,4,6-triiodo-N-methylanilide)-5-(3-carboxy-5-N-methylcarbamoyl-2,4,6-triiodo-anilide) (E).
The values were obtained from healthy male and female beagles (Schering, breeder) with weights of 9-14 kg. The meglumine salt solutions contained 180 mg of I/ml.
The investigation of the x-ray density of the liver before administration of the contrast media and every 5 minutes up to 90 minutes thereafter was carried out using a full-body scanner of the EMI CT 5005/12 type, which operates on the basis of the rotation-translation principle. The scanning time was 20 seconds, the tube voltage 120 kv. For an image matrix of 320×320 elements, the standard deviation from the mean value of a normalized water phantom was 1.6% (i.e., +/-8 EU=EMI units). The computer tomograms were analyzed always on the same liver area by means of the analyzer "IVC" of the EMI Co.

liver parenchyma [5] = conditions: cited from earlier work
liver parenchyma [6] = conditions: cited from earlier work; remark: listed apart in the source

| SMILES | distribution coefficient, butanol/water, pH 7.4 [1] | rat, intracisternal ED50 (rat [2]) | rat, pericerebrally ED50 (rat [3]) | LD50, i.v., rat (rat [4]) | time of maximum enrichment in dog liver (min. p. appl.) (dog liver) | liver concentration for diagnosis improvement, dog (liver parenchyma [5]) | liver concentration for diagnosis improvement, humans (liver parenchyma [6]) | Maximum enrichment in dog liver (dog liver) [EMI units] |
| --- | --- | --- | --- | --- | --- | --- | --- | --- |
| CNC(=O)c1c(I)c(NC(=O)CCCCC(=O)Nc2c(I)cc(I)c(C(=O)O)c2I)c(I)c(C(=O)O)c1I [Compound A, Hexane-diacid-1-(3-carboxy-2,4,6-triiodo-anilide)-6-(3-carboxy-5-N-methylcarbamoyl-2,4,6-triiodo-anilide)] | 0.083 +/- 0.001 | 15.6 (11.5-21.1) mg of I per kg | 17.1 (11.8-23.6) mg of I/kg | 5.5 g of I/kg |  |  |  |  |
| CNC(=O)c1c(I)c(NC(=O)COCC(=O)N(C)c2c(I)cc(I)c(C(=O)O)c2I)c(I)c(C(=O)O)c1I [E, 3-oxapentane-diacid-1-(3-carboxy-2,4,6-triiodo-N-methylanilide)-5-(3-carboxy-5-N-methylcarbamoyl-2,4,6-triiodo-anilide)] |  |  |  |  | 90 |  |  |  |
| O=C(CCCCC(=O)Nc1c(I)cc(I)c(C(=O)O)c1I)Nc1c(I)cc(I)c(C(=O)O)c1I [B, iodipamide] | 0.278 +/- 0.008 | 1.07 (0.54-1.83) mg of I per kg | 6.35 (5.11-7.44) mg of I/kg | 2.6 g of I/kg |  |  |  |  |
| CNC(=O)c1c(I)c(NC(=O)CCCCCCCCC(=O)Nc2c(I)c(C(=O)O)c(I)c(C(=O)NC)c2I)c(I)c(C(=O)O)c1I [D, iosefamic acid] |  |  |  |  | 80 | still adequate liver concentration for diagnosis improvement in the dog | not in humans | 22.8 |
